Five molecules from the NIST ThermoML archive (doi:10.1021/je400205g) can be followed below.

For this data set the following is noted: Transpiration method.

Numbers after ± are expanded uncertainties.

Regarding `C=CC(F)(F)C(F)(F)C(F)(F)C(F)(F)C(F)(F)C(F)(F)C(F)(F)C(F)(F)F`, the “vapor or sublimation pressure” value was found to be 0.01269 ± 0.00078 kPa (254.15 K, Liquid); 0.06823 ± 0.003 kPa (272.45 K, Liquid); 0.2843 ± 0.012 kPa (290.75 K, Liquid); 0.978 ± 0.039 kPa (309.15 K, Liquid).
Turning to `O=C(O)C(F)(F)OC(F)(F)C(F)(F)OC(F)(F)F`, the “vapor or sublimation pressure” value is 0.00451 ± 0.0011 kPa (263.15 K, Liquid); 0.02238 ± 0.0014 kPa (278.15 K, Liquid); 0.09288 ± 0.0041 kPa (293.15 K, Liquid); 0.3168 ± 0.013 kPa (308.15 K, Liquid).
For `O=C(O)C(F)(F)C(F)(F)C(F)(F)C(F)(F)C(F)(F)F` [2,2,3,3,4,4,5,5,6,6,6-undecafluorohexanoic acid], the “vapor or sublimation pressure” value was found to be 0.00126 ± 0.001 kPa (263.15 K, Crystal); 0.00294 ± 0.001 kPa (270.15 K, Crystal); 0.00791 ± 0.0011 kPa (278.15 K, Crystal); 0.0134 ± 0.0012 kPa (283.15 K, Crystal); 0.01726 ± 0.0014 kPa (285.15 K, Crystal); 0.03551 ± 0.0018 kPa (290.15 K, Crystal). For the same molecule, the “vapor or sublimation pressure” value is, setting by setting: (293.15 K, Liquid) 0.044 ± 0.0022 kPa; (300.15 K, Liquid) 0.08434 ± 0.0037 kPa; (308.15 K, Liquid) 0.1656 ± 0.0068 kPa.
Regarding `OCCCC(F)(F)C(F)(F)C(F)(F)C(F)(F)F` [4,4,5,5,6,6,7,7,7-nonafluoro-1-heptanol], the “vapor or sublimation pressure” value runs as follows: (255.65 K, Liquid) 0.00087 ± 8e-05 kPa; (273.15 K, Liquid) 0.00765 ± 0.00033 kPa; (282.45 K, Liquid) 0.02121 ± 0.00096 kPa; (293.15 K, Liquid) 0.05717 ± 0.0027 kPa; (309.15 K, Liquid) 0.217 ± 0.0086 kPa.
For the molecule `CCOC(=O)C(F)(F)C(F)(F)C(F)(F)C(F)(F)C(F)(F)C(F)(F)C(F)(F)F` [ethyl perfluorooctanoate], the “vapor or sublimation pressure” value turned out to be 0.00516 ± 0.0011 kPa (263.15 K, Liquid); 0.02313 ± 0.0014 kPa (278.15 K, Liquid); 0.08988 ± 0.0038 kPa (293.15 K, Liquid); 0.2649 ± 0.011 kPa (308.15 K, Liquid).

As usually defined, the vapor or sublimation pressure is the equilibrium pressure above the liquid or solid.
